Assay [1] concerns leptin production. Description: Enhancing activity for leptin production in adipocytes (ELISA). Format: cell-based, rat. To be noted: leptin concentration as % of control group. In outline:
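Collagenase-dispersed epididymal adipocytes from 6-week-old male Wistar Imamichi rats, cultured in DMEM/F-12 (1:1) with test compound at final 1 µM, 100 nM, 10 nM or 1 nM (0.1% DMSO) for 24 h at 37 °C, 5% CO2. Leptin in filtrate measured by ELISA; activity = treated/DMSO-control leptin × 100 (%).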
For orientation: In an ELISA, binding on a coated surface is turned into a signal by an enzyme label.

For assay [2], the system named is TNF-α production. Description: Inhibitory activity against cytokine (TNF-α) production in LPS-stimulated RAW264.7 cells. Format: cell-based, mouse. The note with it: 1 μM test compound, LPS 10 ng/mL; for inhibition at 1 µM: Mus musculus. In short, it runs like this:
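Mouse RAW264.7 macrophages (5,000 cells/well) stimulated with 10 ng/mL LPS (final) and treated with test compound at 1 μM final for 15 h at 37 °C. Supernatant mouse TNF-α measured by ELISA; % inhibition = 100−(A−B)/(C−B)×100, using unstimulated and LPS-only controls.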

The mark [3] stands for this setting: Rattus norvegicus, Adipocyte, 24 h, 1 μM, read-out: Facilitating activity to produce leptin.
The mark [4] stands for this setting: Rattus norvegicus, Adipocyte, 24 h, 10 nm, read-out: Facilitating activity to produce leptin.
Setting [5] is: Rattus norvegicus, Adipocyte, 24 h, 100 nm, read-out: Facilitating activity to produce leptin.
Where [6] appears, read: Rattus norvegicus, Adipocyte, 10 nm, 24 hr, read-out: Facilitating activity to produce leptin.
The mark [7] stands for this setting: Rattus norvegicus, Adipocyte, 100 nm, 24 hr, read-out: Facilitating activity to produce leptin.

Like-named read-outs stand apart in the source and are kept apart here.

As a reminder, the inhibition is the percentage by which the read-out fell short of the control. A lower inhibition goes with a response near the control.

As to `CCCCNc1ccc(-c2ccc(NC(=O)c3cc([N+](=O)[O-])ccc3Cl)cc2)cc1` [Example 203, N-[4-[4-(N-Butylamiino)phenyl]phenyl]-(2-chloro-5-nitrophenyl)carboxamide], the “Facilitating activity to produce leptin” value in assay [1] (1 μM, 24 hr) was 133.9%; in assay [1] (10 nm, 24 hr) it was 134.6%; in assay [1] (100 nm, 24 hr), 124.8%. For the same compound, the “Inhibitory Activity (%) against TNF-α production” value in assay [2] (15 hr) worked out at 27.1%.

`CCCNc1ccc(-c2ccc(NC(=O)c3cc([N+](=O)[O-])ccc3Cl)cc2)cc1` [Example 204, N-[4-[4-(N-Propylamino)phenyl]phenyl]-(2-chloro-5-nitrophenyl)carboxamide]: the activity at 1 µM in assay [1] (setting [3]) was determined as 133%. Further, in assay [1] (setting [4]), the activity at 0.01 µM was found to be 129%. Also, the activity at 0.1 µM in assay [1] (setting [5]) turned out to be 143%. Further, the inhibition at 1 µM in assay [2] (RAW264.7, 15 h) came out at 32.7%.

Turning to `CCNc1ccc(-c2ccc(NC(=O)c3cc([N+](=O)[O-])ccc3Cl)cc2)cc1` [Example 205, N-[4-[4-(N-Ethylamino)phenyl]phenyl]-(2-chloro-5-nitrophenyl)carboxamide], the activity at 1 µM in assay [1] (setting [3]) was 120%. Moreover, in assay [1] (setting [4]), the activity at 0.01 µM was found to be 123%. Also, in assay [1] (setting [5]), the activity at 0.1 µM worked out at 123%. 1 µM produced 34.9% inhibition in assay [2] (RAW264.7, 15 h).

In the case of `CCCCCN(CCCC)c1ccc(-c2ccc(NC(=O)c3cc([N+](=O)[O-])ccc3Cl)cc2)cc1` [Example 206, N-[4-[4-(N-Butyl-N-pentylamino)phenyl]phenyl]-(2-chloro-5-nitrophenyl)carboxamide], the activity at 1 µM in assay [1] (setting [3]) worked out at 119%. Besides, the activity at 0.1 µM in assay [1] (setting [5]) worked out at 112%. In assay [2] (RAW264.7, 15 h), at 1 µM the inhibition was 27.5%.

On to `CCCCN(CCCC)c1ccc(-c2ccc(NC(=O)c3cc([N+](=O)[O-])ccc3Cl)cc2)cc1` [Example 207, N-[4-[4-(N,N-Dibutylamino)phenyl]phenyl]-(2-chloro-5-nitrophenyl)carboxamide], for which the activity at 1 µM in assay [1] (setting [3]) came to 116%. In addition, the activity at 0.01 µM in assay [1] (setting [4]) was 107%. Further, the activity at 0.1 µM in assay [1] (setting [5]) is 110%. The same compound displayed an inhibition at 1 µM in assay [2] (RAW264.7, 15 h) of 27.1%.

For the compound `CCCCN(CCC)c1ccc(-c2ccc(NC(=O)c3cc([N+](=O)[O-])ccc3Cl)cc2)cc1` [Example 208, N-[4-[4-(N-Butyl-N-propylamino)phenyl]phenyl]-(2-chloro-5-nitrophenyl)carboxamide], the activity at 0.1 µM in assay [1] (setting [5]) was determined as 111%. The compound also yielded an inhibition at 1 µM in assay [2] (RAW264.7, 15 h) of 26.3%.

For the compound `CCCCN(CC)c1ccc(-c2ccc(NC(=O)c3cc([N+](=O)[O-])ccc3Cl)cc2)cc1` [Example 209, N-[4-[4-(N-Butyl-N-ethylamino)phenyl]phenyl]-(2-chloro-5-nitrophenyl)carboxamide], the activity at 1 µM in assay [1] (setting [3]) was found to be 117%. For the same compound, in assay [1] (setting [5]), the activity at 0.1 µM was 111%. In assay [2] (RAW264.7, 15 h), this compound returned an inhibition at 1 µM of 26.9%.

Consider `CCCN(CC)c1ccc(-c2ccc(NC(=O)c3cc([N+](=O)[O-])ccc3Cl)cc2)cc1` [Example 212, N-[4-[4-(N-Ethyl-N-propylamino)phenyl]phenyl]-(2-chloro-5-nitrophenyl)carboxamide], for which the activity at 1 µM in assay [1] (setting [3]) stood at 112%. Also, the inhibition at 1 µM in assay [2] (RAW264.7, 15 h) was 31.2%.

`CCCCCN(CCCCC)c1ccc(-c2ccc(NC(=O)c3cc([N+](=O)[O-])ccc3Cl)cc2)cc1` [Example 214, N-[4-[4-(N,N-Dipentylamino)phenyl]phenyl]-(2-chloro-5-nitrophenyl)carboxamide]: in assay [1] (setting [3]), the activity at 1 µM came to 125%. Besides, the activity at 0.01 µM in assay [1] (setting [4]) is 112%. Also, the activity at 0.1 µM in assay [1] (setting [5]) turned out to be 125%. Besides, in assay [2] (RAW264.7, 15 h), at 1 µM the inhibition was 20.1%.

As to `CCCCCN(CC)c1ccc(-c2ccc(NC(=O)c3cc([N+](=O)[O-])ccc3Cl)cc2)cc1` [Example 216, N-[4-[4-(N-Ethyl-N-pentylamino)phenyl]phenyl]-(2-chloro-5-nitrophenyl)carboxamide], the activity at 1 µM in assay [1] (setting [3]) amounted to 117%. The activity at 0.01 µM in assay [1] (setting [4]) was 113%. Further, the activity at 0.1 µM in assay [1] (setting [5]) was 112%. This compound also returned an inhibition at 1 µM in assay [2] (RAW264.7, 15 h) of 30.6%.

Take `CCN(CC)c1ccc(-c2ccc(NC(=O)c3cc([N+](=O)[O-])ccc3Cl)cc2)cc1` [Example 217, N-[4-[4-(N,N-Diethylamino)phenyl]phenyl]-(2-chloro-5-nitrophenyl)carboxamide]: the activity at 1 µM in assay [1] (setting [3]) was 121%. In addition, the activity at 0.01 µM in assay [1] (setting [4]) turned out to be 116%. Further, the activity at 0.1 µM in assay [1] (setting [5]) was 117%. In assay [2] (RAW264.7, 15 h), this compound yielded an inhibition at 1 µM of 28.7%.

Turning to `O=C(Nc1ccc(-c2ccc(NC(=S)Nc3cccc(F)c3)cc2)cc1)c1cc([N+](=O)[O-])ccc1Cl` [Example 245, N-[4-[4-[(3-Fluorophenyl)aminothiocarbonylamino]phenyl]phenyl]-(2-chloro-5-nitrophenyl)carboxamide], the activity at 1 µM in assay [1] (setting [3]) is 111%. Further, in assay [1] (setting [4]), the activity at 0.01 µM was 111%. Moreover, in assay [2] (RAW264.7, 15 h), 1 µM produced 34.6% inhibition.

`O=C(Nc1nc(-c2ccc([N+](=O)[O-])cc2)cs1)c1cc([N+](=O)[O-])ccc1Cl` [Example 246, N-[4-(4-Nitrophenyl)thiazol-2-yl]-(2-chloro-5-nitrophenyl)carboxamide]: in assay [1] (setting [6]), the activity at 0.01 µM was 111%. Moreover, in assay [1] (setting [7]), the activity at 0.1 µM was found to be 113%. In assay [2] (15 hr), this compound displayed an inhibition at 1 µM of 18%.

On to `CCOC(=O)NC(=S)Nc1ccc(-c2ccc(NC(=O)c3cc([N+](=O)[O-])ccc3Cl)cc2)cc1` [Example 251, N-[4-[4-(Ethoxycarbonylaminothiocarbonylamino)phenyl]phenyl]-(2-chloro-5-nitrophenyl)carboxamide], for which, in assay [1] (setting [4]), the activity at 0.01 µM was determined as 111%. The activity at 0.1 µM in assay [1] (setting [5]) came out at 107%. In assay [2] (RAW264.7, 15 h), this compound returned an inhibition at 1 µM of 29%.

Take `O=C(Nc1ccc(-c2ccc(NC(=S)Nc3ccccc3)cc2)cc1)c1cc([N+](=O)[O-])ccc1Cl` [Example 252, N-[4-[4-(Phenylaminothiocarbonylamino)phenyl]phenyl]-(2-chloro-5-nitrophenyl)carboxamide]: in assay [1] (setting [3]), the activity at 1 µM worked out at 108%. The activity at 0.01 µM in assay [1] (setting [4]) was found to be 110%. In addition, the activity at 0.1 µM in assay [1] (setting [5]) was determined as 113%. In assay [2] (RAW264.7, 15 h), the inhibition at 1 µM was found to be 19.3%.

On to `O=C(Nc1ccc(-c2ccc(NC(=O)c3cc([N+](=O)[O-])ccc3Cl)cc2)cc1)Nc1ccccc1[N+](=O)[O-]` [Example 254, N-[4-[4-(2-Nitrophenylaminocarbonylamino)phenyl]phenyl]-(2-chloro-5-nitrophenyl)carboxamide], for which the activity at 1 µM in assay [1] (Rattus norvegicus, Adipocyte, 1 μM, 24 hr, read-out: Facilitating activity to produce leptin) was determined as 109%. Besides, in assay [1] (setting [6]), the activity at 0.01 µM stood at 111%. Further, the activity at 0.1 µM in assay [1] (setting [7]) turned out to be 106%. This compound also had an inhibition at 1 µM in assay [2] (15 hr) of 44.3%.

For `O=C(NC(=S)NCCc1ccc(NC(=O)c2cc([N+](=O)[O-])ccc2Cl)cc1)c1ccccc1` [Example 271, N-[4-(2-Phenylcarbonylaminothiocarbonylaminoethyl)phenyl]-(2-chloro-5-nitrophenyl)carboxamide], in assay [1] (setting [4]), the activity at 0.01 µM is 121%. For the same compound, the activity at 0.1 µM in assay [1] (setting [5]) was 115%. For the same compound, 1 µM produced 25.2% inhibition in assay [2] (RAW264.7, 15 h).

Turning to `CCS(=O)(=O)N(c1ccc(-c2ccc(NC(=O)c3cc([N+](=O)[O-])ccc3Cl)cc2)cc1)S(=O)(=O)CC` [Example 276, N-[4-[4-(N,N-Diethanesulfonylamino)phenyl]phenyl]-(2-chloro-5-nitrophenyl)carboxamide], the activity at 1 µM in assay [1] (setting [3]) is 117%. In addition, the activity at 0.001 µM in assay [1] (Rattus norvegicus, Adipocyte, 24 h, 1 nm, read-out: Facilitating activity to produce leptin) was found to be 108%. For the same compound, in assay [1] (setting [4]), the activity at 0.01 µM is 112%. The activity at 0.1 µM in assay [1] (setting [5]) was determined as 123%. Moreover, testing at 1 µM in assay [2] (RAW264.7, 15 h) gave an inhibition of 28.5%.

As to “N-[4-(Benzenesulfonylaminophenyl)phenyl]-(2-chloro-5-nitrophenyl)carboxamide [Example 128]”, the “Facilitating activity to produce leptin” value was determined as 137.3% in assay [1] (1 μM, 24 hr); 108.8% in assay [1] (10 nm, 24 hr); 130.8% in assay [1] (100 nm, 24 hr). In addition, in assay [2] (15 hr), the “Inhibitory Activity (%) against TNF-α production” value stood at 28.8%.

The values are drawn from US20030134859A1 (SANKYO COMPANY, LIMITED, priority 2000, published 2003).
